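Method: 48-hour compound exposure of cells in 96-well plates, five concentrations, linear interpolation of endpoints. GI50 is the concentration that inhibits growth by half.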 The source made the active and inactive calls. No stated cut-off is given here; in the data, active = GI50 up to about 1.1 µM and inactive = higher.
Tests used:
Assay in all cases: DTP human tumour cell line panel, 48 h
[1] = system: HCT-15
[2] = system: EKVX
[3] = system: SW-620
[4] = system: RPMI-8226
[5] = system: 786-0
[6] = system: Hs-578T
[7] = system: SK-OV-3
[8] = system: COLO 205
[9] = system: UACC-62
[10] = system: SK-MEL-2
[11] = system: NCI-H226
[12] = system: SK-MEL-5
[13] = system: HCT-116
[14] = system: SNB-19
[15] = system: OVCAR-8
[16] = system: MDA-MB-231
[17] = system: NCI-H23
[18] = system: SF-268
[19] = system: NCI-H522
[20] = system: MDA-MB-435

Row | Structure (SMILES) | GI50 [1] [µM] | GI50 [2] | GI50 [3] | GI50 [4] | GI50 [5] | GI50 [6] | GI50 [7] | GI50 [8] | GI50 [9] | GI50 [10] | GI50 [11] | GI50 [12] | GI50 [13] | GI50 [14] | GI50 [15] | GI50 [16] | GI50 [17] | GI50 [18] | GI50 [19] | GI50 [20]
1 | N#C/C(=C\c1ccc([N+](=O)[O-])o1)c1n[nH]c(Cc2ccccc2)n1 | 0.281 | 2.72 µM (inactive) | 0.277 µM (active) | 0.335 µM (active) | 0.847 µM (active) | 3.98 µM (inactive) | 4.52 µM (inactive) | 1.23 µM (inactive) | 1.52 µM (inactive) | 1.99 µM (inactive) | 1.65 µM (inactive) | 1.05 µM (active) | 0.232 µM (active) | 4.93 µM (inactive) | 2.84 µM (inactive) | 1.57 µM (inactive) | 1.21 µM (inactive) | 0.641 µM (active) | 0.368 µM (active) | 1.67 µM (inactive)
2 | CSc1cccc(NC(=O)OC2CCCCCCCCCCC2)c1 | 28.8 | 19.1 µM (inactive) | 18.8 µM (inactive) | 14.7 µM (inactive) | 20.9 µM (inactive) | 34.4 µM (inactive) | 16.6 µM (inactive) | 14.5 µM (inactive) | 18.1 µM (inactive) | 18.4 µM (inactive) | 29.9 µM (inactive) | 15.4 µM (inactive) | 15.1 µM (inactive) | 37.5 µM (inactive) | 26.7 µM (inactive) | 23.6 µM (inactive) | 24.4 µM (inactive) | 29.8 µM (inactive) | 13.2 µM (inactive) | 15.7 µM (inactive)
3 | Cn1c(=O)c2c(ncn2CN2CCN(Cn3cnc4c3c(=O)n(C)c(=O)n4C)CC2)n(C)c1=O | 27.6 | 29.1 µM (inactive) | 23.2 µM (inactive) | 22.7 µM (inactive) | 29 µM (inactive) | > 100 µM (inactive) | > 100 µM (inactive) | 39.4 µM (inactive) | 45.7 µM (inactive) | > 100 µM (inactive) | > 100 µM (inactive) | > 100 µM (inactive) | 16.9 µM (inactive) | > 100 µM (inactive) | 44.6 µM (inactive) | > 100 µM (inactive) | 65.9 µM (inactive) | 50.9 µM (inactive) | 44.7 µM (inactive) | 86.5 µM (inactive)
4 | O=[N+]([O-])c1cc2[nH]nnc2c2nonc12 | 29.2 | 65.8 µM (inactive) | 30.7 µM (inactive) | 24 µM (inactive) | 38.5 µM (inactive) | 17.4 µM (inactive) | 46.8 µM (inactive) | 17.5 µM (inactive) | > 10 µM (inactive) | 40.7 µM (inactive) | 19.3 µM (inactive) | 11.9 µM (inactive) | 20.5 µM (inactive) | 30.7 µM (inactive) | 21.1 µM (inactive) | 32.7 µM (inactive) | 26.5 µM (inactive) | 59 µM (inactive) | 14.3 µM (inactive) | 13.1 µM (inactive)
5 | O=C(Nc1ccc(Cl)cc1)c1cc(S(=O)(=O)Nc2nc3cccnc3[nH]2)c(SSc2cc(Cl)c(C(=O)Nc3ccc(Cl)cc3)cc2S(=O)(=O)Nc2nc3cccnc3[nH]2)cc1Cl | > 100 | > 100 µM (inactive) | > 100 µM (inactive) | > 100 µM (inactive) | > 100 µM (inactive) | > 100 µM (inactive) | > 100 µM (inactive) | > 100 µM (inactive) | > 100 µM (inactive) | > 100 µM (inactive) | > 100 µM (inactive) | > 100 µM (inactive) | > 100 µM (inactive) | > 100 µM (inactive) | > 100 µM (inactive) | > 100 µM (inactive) | > 100 µM (inactive) | > 100 µM (inactive) | > 100 µM (inactive) | > 100 µM (inactive)
6 | CC(=O)Oc1ccc(N2C(=O)C3c4[nH]c5ccccc5c4C4CCC(C(C)(C)C)CC4C3C2=O)cc1 (stereo not given) | 4.07 | 3.07 µM (inactive) | 2.51 µM (inactive) | 6.68 µM (inactive) | 2.1 µM (inactive) | 2.31 µM (inactive) | 10.8 µM (inactive) | 4.71 µM (inactive) | 6.08 µM (inactive) | 5.13 µM (inactive) | 12.7 µM (inactive) | 2.84 µM (inactive) | 2.15 µM (inactive) | 3.08 µM (inactive) | 3.84 µM (inactive) | 2.28 µM (inactive) | 3.56 µM (inactive) | 3.34 µM (inactive) | 4.45 µM (inactive) | 10.4 µM (inactive)
7 | C=C1C(=O)OC2C1C(OC(=O)/C(C)=C/C)CC(O)(CCl)C1C(O)C3OC3(C)C21O (stereo not given) | 17.1 | > 50 µM (inactive) | 13.4 µM (inactive) | 16.1 µM (inactive) | 15.9 µM (inactive) | > 50 µM (inactive) | > 50 µM (inactive) | 13.3 µM (inactive) | 34.6 µM (inactive) | > 50 µM (inactive) | > 50 µM (inactive) | 28.2 µM (inactive) | 10.8 µM (inactive) | > 50 µM (inactive) | 13.2 µM (inactive) | > 50 µM (inactive) | 34.5 µM (inactive) | > 50 µM (inactive) | 0.7 µM (active) | 48.5 µM (inactive)
8 | Nc1cc2c(c3ccccc13)C(CCl)CN2C(=O)c1cc2cc(NC(=O)Nc3ccc4[nH]c(C(=O)N5CC(CCl)c6c5cc(N)c5ccccc65)cc4c3)ccc2[nH]1 (stereo not given) | 1.96 | 1.74 µM (inactive) | 0.075 µM (active) | 1.4 µM (inactive) | 0.0153 µM (active) | 1.35 µM (inactive) | 0.506 µM (active) | 0.687 µM (active) | 0.0634 µM (active) | 0.995 µM (active) | 0.275 µM (active) | 0.141 µM (active) | 0.172 µM (active) | 0.0785 µM (active) | 0.0678 µM (active) | 0.27 µM (active) | 0.0239 µM (active) | 0.0514 µM (active) | 0.0509 µM (active) | 0.548 µM (active)
9 | Clc1ccc2c(NCCCCN3OC3c3ccccc3)ccnc2c1 (stereo not given) | 10.4 | 21.8 µM (inactive) | 5.21 µM (inactive) | 2.92 µM (inactive) | 2.47 µM (inactive) | 14.6 µM (inactive) | 19.6 µM (inactive) | 2.86 µM (inactive) | 14.1 µM (inactive) | 4.79 µM (inactive) | 18.4 µM (inactive) | 4.79 µM (inactive) | 2.06 µM (inactive) | 6.89 µM (inactive) | 3.71 µM (inactive) | 2.27 µM (inactive) | 15.8 µM (inactive) | 8.07 µM (inactive) | 6.41 µM (inactive) | 4.47 µM (inactive)
10 | CC1=C(C(=O)N(C(C)C)C(C)C)CC(C(=O)N(C(C)C)C(C)C)=C(C)N1 | > 100 | > 100 µM (inactive) | > 100 µM (inactive) | > 100 µM (inactive) | > 100 µM (inactive) | > 100 µM (inactive) | > 100 µM (inactive) | > 100 µM (inactive) | > 100 µM (inactive) | > 100 µM (inactive) | > 100 µM (inactive) | > 100 µM (inactive) | > 100 µM (inactive) | > 100 µM (inactive) | > 100 µM (inactive) | 54.1 µM (inactive) | > 100 µM (inactive) | > 100 µM (inactive) | > 100 µM (inactive) | 79.8 µM (inactive)
11 | C[C@H]1[C@H](C)CC[C@]2(C(=O)OC3OC(CO)C(O)C(O)C3O)CC[C@]3(C)C(=CC[C@@H]4[C@@]5(C)C[C@@H](O)[C@@H]6OC(=O)c7cc(O)c(O)c(O)c7-c7c(cc(O)c(O)c7O)C(=O)OC[C@]6(CO)[C@@H]5CC[C@]43C)[C@H]12 (stereo not given in full) | 28.1 | 36.7 µM (inactive) | 27.4 µM (inactive) | 66.7 µM (inactive) | 14 µM (inactive) | > 100 µM (inactive) | 31.7 µM (inactive) | 41.7 µM (inactive) | 70.6 µM (inactive) | > 65 µM (inactive) | 67.8 µM (inactive) | 39.8 µM (inactive) | 41.2 µM (inactive) | 26.5 µM (inactive) | 29.6 µM (inactive) | 12.4 µM (inactive) | 46.8 µM (inactive) | > 83.4 µM (inactive) | 13.6 µM (inactive) | 17.8 µM (inactive)
12 | CN(C)CC1CCCCCC(Br)C1=O (stereo not given) | 9.23 | 15.1 µM (inactive) | 3.71 µM (inactive) | 0.61 µM (active) | 2.25 µM (inactive) | 17.1 µM (inactive) | > 100 µM (inactive) | 11.5 µM (inactive) | 18.7 µM (inactive) | 20.7 µM (inactive) | 20.7 µM (inactive) | 15.5 µM (inactive) | 2.05 µM (inactive) | > 83.2 µM (inactive) | 13 µM (inactive) | 16.1 µM (inactive) | 13.4 µM (inactive) | 24.2 µM (inactive) | 3.66 µM (inactive) | 16 µM (inactive)
13 | COC1(OC)CC(CO)(CNc2cc(Cl)nc(N)n2)C1 | > 100 | 39.7 µM (inactive) | > 100 µM (inactive) | > 100 µM (inactive) | > 100 µM (inactive) | > 100 µM (inactive) | > 100 µM (inactive) | > 100 µM (inactive) | > 100 µM (inactive) | > 100 µM (inactive) | > 100 µM (inactive) | > 100 µM (inactive) | > 100 µM (inactive) | > 100 µM (inactive) | > 100 µM (inactive) | > 100 µM (inactive) | > 100 µM (inactive) | > 100 µM (inactive) | > 100 µM (inactive) | > 100 µM (inactive)
14 | CCOC(=O)C1=CN(C(=O)c2ccccc2)CCC1Cc1ccccc1 (stereo not given) | 21.3 | 24 µM (inactive) | 26 µM (inactive) | 13.5 µM (inactive) | 28.6 µM (inactive) | 20.5 µM (inactive) | 31 µM (inactive) | 18.9 µM (inactive) | 13.7 µM (inactive) | 16.8 µM (inactive) | 43.6 µM (inactive) | 15 µM (inactive) | 23.1 µM (inactive) | 34.4 µM (inactive) | 24.4 µM (inactive) | 17.7 µM (inactive) | 29 µM (inactive) | 32.9 µM (inactive) | 16.2 µM (inactive) | 20.4 µM (inactive)

From ChEMBL document CHEMBL1201862, “PubChem BioAssay data set” (2004)
